Source: PubChem BioAssay (NCI)
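Briefly, cells in 96-well plates were exposed to five compound concentrations for 48 h, and endpoints were estimated by linear interpolation. GI50 marks 50% less growth. TGI marks complete inhibition of growth.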

Experiments:
Assay in all cases: growth of human tumour cells (NCI), 48 h
T-47D breast = test system: T-47D breast
NCI-H23 lung = test system: NCI-H23 lung
NCI/ADR-RES ovarian = test system: NCI/ADR-RES ovarian
OVCAR-3 ovarian = test system: OVCAR-3 ovarian
COLO 205 colon = test system: COLO 205 colon
SW-620 colon = test system: SW-620 colon
UACC-257 melanoma = test system: UACC-257 melanoma
SK-MEL-28 melanoma = test system: SK-MEL-28 melanoma
SNB-19 CNS = test system: SNB-19 CNS
CCRF-CEM leukemia = test system: CCRF-CEM leukemia
SF-539 CNS = test system: SF-539 CNS
M14 melanoma = test system: M14 melanoma
SK-MEL-2 melanoma = test system: SK-MEL-2 melanoma
UACC-62 melanoma = test system: UACC-62 melanoma
HCT-15 colon = test system: HCT-15 colon
HCC-2998 colon = test system: HCC-2998 colon
OVCAR-8 ovarian = test system: OVCAR-8 ovarian
EKVX NSCLC = test system: EKVX NSCLC
A549 NSCLC = test system: A549 NSCLC
MDA-MB-435 = test system: MDA-MB-435
SK-MEL-5 melanoma = test system: SK-MEL-5 melanoma
MOLT-4 leukemia = test system: MOLT-4 leukemia
NCI-H460 lung = test system: NCI-H460 lung
NCI-H226 lung = test system: NCI-H226 lung
SF-268 CNS = test system: SF-268 CNS
IGROV1 ovarian = test system: IGROV1 ovarian
HOP-92 NSCLC = test system: HOP-92 NSCLC

Q: With Nc1ccccc1C#Cc1ccccc1C#Cc1ccccc1N as the molecule, how does the GI50 (T-47D breast) read?
A: 17.1 µM

Q: And the TGI (T-47D breast)?
A: 38.4 µM

Q: What about the GI50 (NCI-H23 lung) of the same molecule?
A: 19.3 µM

Q: What about the TGI (NCI-H23 lung) of the same molecule?
A: 70.8 µM

Q: And the GI50 (NCI/ADR-RES ovarian)?
A: 13 µM

Q: What about the TGI (NCI/ADR-RES ovarian) of the same molecule?
A: 73.3 µM

Q: And the GI50 (OVCAR-3 ovarian)?
A: 2220 nM

Q: What about the TGI (OVCAR-3 ovarian) of the same molecule?
A: 8.24 µM

Q: What about the GI50 (COLO 205 colon) of the same molecule?
A: 15 µM

Q: And the TGI (COLO 205 colon)?
A: 43.9 µM

Q: And the GI50 (SW-620 colon)?
A: 5.31 µM

Q: What about the TGI (SW-620 colon) of the same molecule?
A: 18.4 µM

Q: And the GI50 (UACC-257 melanoma)?
A: 30.1 µM

Q: And the TGI (UACC-257 melanoma)?
A: > 100 µM

Q: What about the GI50 (SK-MEL-28 melanoma) of the same molecule?
A: 15.1 µM

Q: What about the TGI (SK-MEL-28 melanoma) of the same molecule?
A: 87.8 µM

Q: And the GI50 (SNB-19 CNS)?
A: 23.3 µM

Q: And the TGI (SNB-19 CNS)?
A: 65.8 µM

Q: And the GI50 (CCRF-CEM leukemia)?
A: 3.21 µM

Q: What about the TGI (CCRF-CEM leukemia) of the same molecule?
A: 16.2 µM

Q: And the GI50 (SF-539 CNS)?
A: 5.4 µM

Q: And the TGI (SF-539 CNS)?
A: 21.1 µM

Q: And the GI50 (M14 melanoma)?
A: 6.62 µM

Q: What about the TGI (M14 melanoma) of the same molecule?
A: 24.5 µM

Q: What about the GI50 (SK-MEL-2 melanoma) of the same molecule?
A: 11.3 µM

Q: What about the TGI (SK-MEL-2 melanoma) of the same molecule?
A: 30.2 µM

Q: What about the GI50 (UACC-62 melanoma) of the same molecule?
A: 6.93 µM

Q: And the TGI (UACC-62 melanoma)?
A: 21.2 µM

Q: What about the GI50 (HCT-15 colon) of the same molecule?
A: 3.42 µM

Q: And the TGI (HCT-15 colon)?
A: 16.8 µM

Q: And the GI50 (HCC-2998 colon)?
A: 14 µM

Q: What about the TGI (HCC-2998 colon) of the same molecule?
A: 41 µM

Q: And the GI50 (OVCAR-8 ovarian)?
A: 20.7 µM

Q: And the TGI (OVCAR-8 ovarian)?
A: 49.4 µM

Q: And the GI50 (EKVX NSCLC)?
A: 8.03 µM

Q: And the TGI (EKVX NSCLC)?
A: 32.8 µM

Q: What about the GI50 (A549 NSCLC) of the same molecule?
A: 22.1 µM

Q: What about the TGI (A549 NSCLC) of the same molecule?
A: > 100 µM

Q: And the GI50 (MDA-MB-435)?
A: 1310 nM

Q: And the TGI (MDA-MB-435)?
A: 4.39 µM

Q: And the GI50 (SK-MEL-5 melanoma)?
A: 9.09 µM

Q: What about the TGI (SK-MEL-5 melanoma) of the same molecule?
A: 22.9 µM

Q: What about the GI50 (MOLT-4 leukemia) of the same molecule?
A: 2120 nM

Q: What about the TGI (MOLT-4 leukemia) of the same molecule?
A: 11.9 µM

Q: What about the GI50 (NCI-H460 lung) of the same molecule?
A: 5.89 µM

Q: And the TGI (NCI-H460 lung)?
A: > 100 µM

Q: And the GI50 (NCI-H226 lung)?
A: 12.7 µM

Q: And the TGI (NCI-H226 lung)?
A: 31.1 µM

Q: What about the GI50 (SF-268 CNS) of the same molecule?
A: 10.6 µM

Q: And the TGI (SF-268 CNS)?
A: 37 µM

Q: What about the GI50 (IGROV1 ovarian) of the same molecule?
A: 10.2 µM

Q: What about the TGI (IGROV1 ovarian) of the same molecule?
A: 30.4 µM

Q: And the GI50 (HOP-92 NSCLC)?
A: 3.62 µM

Q: What about the TGI (HOP-92 NSCLC) of the same molecule?
A: 15.6 µM
